The source of these data is patent US11878965B2, “Inhibitors of peptidylarginine deiminases” (Gilead Sciences, Inc., priority 2020, dated 2024).

The structures appear in SMILES notation.

In the assay the target is human PAD4 (Homo sapiens (Human), UniProt Q9UM07). As to the kind of experiment: In Vitro PAD4 BAEE Biochemical Assay. Particulars: human PAD4, BAEE substrate; 5 nM PAD4, 2 mM calcium chloride, 3 mM BAEE; geometric mean of multiple experiments. As for the experimental part: The PCR product was ligated into linearized pET-SUMO vector (Invitrogen, Carlsbad, CA), which is part of the Champion™ pET SUMO Protein Expression System. After sequence verification for the correct orientation, the pET-SUMO-hPAD4 expression plasmid was transformed into BL21(DE3) cells.
human PAD4, sequence (Q9UM07 2-663): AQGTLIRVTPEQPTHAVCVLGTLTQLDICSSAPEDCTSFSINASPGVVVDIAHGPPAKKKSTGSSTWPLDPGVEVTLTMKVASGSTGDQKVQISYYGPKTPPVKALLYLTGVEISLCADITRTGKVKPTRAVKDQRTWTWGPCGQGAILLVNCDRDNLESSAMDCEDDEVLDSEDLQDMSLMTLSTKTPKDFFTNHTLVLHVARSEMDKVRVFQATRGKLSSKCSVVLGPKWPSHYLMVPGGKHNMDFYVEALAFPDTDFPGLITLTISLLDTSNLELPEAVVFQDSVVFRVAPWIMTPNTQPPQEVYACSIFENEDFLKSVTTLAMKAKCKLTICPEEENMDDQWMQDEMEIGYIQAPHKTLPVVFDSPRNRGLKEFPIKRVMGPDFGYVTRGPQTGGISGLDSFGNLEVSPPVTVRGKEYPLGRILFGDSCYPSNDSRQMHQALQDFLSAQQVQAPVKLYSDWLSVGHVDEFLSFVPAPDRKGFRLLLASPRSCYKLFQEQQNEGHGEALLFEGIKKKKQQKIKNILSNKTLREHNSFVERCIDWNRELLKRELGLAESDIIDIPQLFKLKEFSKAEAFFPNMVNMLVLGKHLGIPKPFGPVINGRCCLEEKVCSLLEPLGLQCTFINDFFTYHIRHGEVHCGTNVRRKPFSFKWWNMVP
E. Coli BL21(DE3) cells were inoculated in LB medium with kanamycin at 37° C. until A600 nm reached about 0.5. Protein expression was induced by addition of 0.5 mM IPTG (final) and continued overnight at 16° C. at 220 rpm.
Cells were harvested by centrifugation at 5000 rpm for 10 minutes at 4° C. The pellet was resuspended in 300 ml lysis buffer (20 mM Tris-HCl, pH 8.0, 1 mM EDTA, 500 mM NaCl, 1 mM (tris(2-carboxyethyl)phosphine) (TCEP), 10% glycerol, and 1% Triton X100 and EDTA free protease inhibitor) and lysed by 3× passage through a microfluidizer (Microfluidics, Newton, MA) at 18,000 psi. The cell lysate was clarified by centrifugation at 30,000 rpm for 60 minutes at 4° C. The supernatant was applied to a 5 ml Ni-HP (GE HealthCare Cat #17524701) column preequilibrated in Ni-A buffer (20 mM Tris-HCl, pH 8.0, 20 mM Imidazole, 1 mM TCEP, 10% glycerol, and 400 mM NaCl). Bound protein was eluted with a 0-100% linear gradient of 100 mL Ni-B buffer (Ni A buffer+0.5 M Imidazole).
The His-Sumo tag was cleaved using sumo protease (Thermo Fisher Cat #: 12588018) while dialyzing in buffer (20 mM Tris-HCl, pH 8.0, 1 mM EDTA, 500 mM NaCl, 1 mM TCEP, 10% glycerol). The protein was then reloaded onto a Ni-HP column for a reverse purification step and recovered in flow through fraction. The protein with His-Sumo tag removed was then polished using a 16/60 Superdex-200 gel filtration column with gel filtration buffer (20 mM Tris pH 8.0, NaCl 400 mM and 1 mM TCEP). The fractions containing the protein were pulled and frozen at −80° C.
In Vitro PAD4 BAEE Biochemical Assay
The enzymatic activity of human PAD4 was monitored in a biochemical assay in the presence or absence of compounds using the small peptidyl arginine mimic BAEE (Nα-Benzoyl-L-arginine ethyl ester hydrochloride) as substrate. PAD4 activity led to deimination of BAEE and release of ammonia. Levels of ammonia were monitored by using an amine coupling reaction and were indicative of PAD4 enzymatic activity.
One hundred nanoliters of test compounds dissolved in DMSO at various concentrations were dispensed into a 384-well black OptiPlate using a Labcyte Echo instrument. Ten microliters of a solution of recombinant PAD4 and calcium chloride diluted in PAD4 assay buffer (50 mM MOPS [3-(N-morpholino) propanesulfonic acid], pH 7.6; 50 mM sodium chloride; 0.05% Tween-20; 2 mM dithiothreitol) was added to the compound-containing plate and was incubated for 30 minutes at 25° C. Ten microliters of a solution of BAEE (Sigma-Aldrich #B4500) diluted in PAD4 assay buffer was then added to start the reaction. Final concentrations were 5 nM PAD4, 2 mM calcium chloride, and 3 mM BAEE. The reaction mixture was incubated at 25° C. for 2 hours and was stopped with the addition of 10 microliters of a solution of 75 mM EDTA (Ethylenediaminetetraacetic acid) in PAD4 assay buffer. Thirty microliters of detection solution (5 mM o-phthalaldehyde, 50 mM MOPS [3-(N-morpholino) propanesulfonic acid], pH 7.6; 50 mM sodium chloride; 0.05% Tween-20; 5 mM dithiothreitol) was then added and the reaction was incubated for 1 hour at 25° C. The level of fluorescent thiol-substituted isoindole resulting from the reaction of ammonia, o-phthalaldehyde, and dithiothreitol was measured on an Envision plate reader (PerkinElmer) with 405 nm excitation and 535 nm emission.
Turning to `CCN(c1ccc2cc(-c3nc4cc(C(=O)N5CCC[C@@H](N)C5)cc(OC)c4n3C)n(CC3CC3)c2n1)S(=O)(=O)C1CC1` [Example 25, (R)-N-(2-(5-(3-aminopiperidine-1-carbonyl)-7-methoxy-1-methyl-1H-benzo[d]imidazol-2-yl)-1-(cyclopropylmethyl)-1H-pyrrolo [2,3-b]pyridin-6-yl)-N-ethylcyclopropanesulfonamide], the half-inhibitory concentration (IC50) (commonly the concentration needed to halve the response being measured) amounted to 0.082 µM. Turning to `COc1cc(C(=O)N2CCC[C@@H](N)C2)cc2nc(-c3cc4ccc(N(C5CC5)S(=O)(=O)C5CC5)nc4n3CC3CC3)n(C)c12` [Example 26, (R)-N-(2-(5-(3-aminopiperidine-1-carbonyl)-7-methoxy-1-methyl-1H-benzo[d]imidazol-2-yl)-1-(cyclopropylmethyl)-1H-pyrrolo [2,3-b]pyridin-6-yl)-N-cyclopropylcyclo-propanesulfonamide], the IC50 came out at 0.106 µM.

As to `COc1cc(C(=O)N2CCC[C@@H](N)C2)cc2nc(-c3cc4ccc(N(C(F)F)S(=O)(=O)C5CC5)nc4n3CC3CC3)n(C)c12` [Example 27, (R)-N-(2-(5-(3-aminopiperidine-1-carbonyl)-7-methoxy-1-methyl-1H-benzo[d]imidazol-2-yl)-1-(cyclopropylmethyl)-1H-pyrrolo [2,3-b]pyridin-6-yl)-N-(difluoromethyl) cyclopropanesulfonamide], the IC50 is 0.0927 µM. Turning to `CCN(c1ccc2cc(-c3nc4cc(C(=O)N5CCC[C@@H](N)[C@H]5C)cc(OC)c4n3C)n(CC3CC3)c2n1)S(C)(=O)=O` [Example 28, N-(2-(5-((2R,3R)-3-amino-2-methylpiperidine-1-carbonyl)-7-methoxy-1-methyl-1H-benzo[d]imidazol-2-yl)-1-(cyclopropylmethyl)-1H-pyrrolo [2,3-b]pyridin-6-yl)-N-ethylmethanesulfonamide], the 50% inhibitory concentration (IC50) was found to be 0.0986 µM.

With `CCN(c1ccc2cc(-c3nc4cc(C(=O)N5CC(N)CCC5C)cc(OC)c4n3C)n(CC3CC3)c2n1)S(C)(=O)=O` (stereo not shown) [Example 29, N-(2-(5-(5-amino-2-methylpiperidine-1-carbonyl)-7-methoxy-1-methyl-1H-benzo[d]imidazol-2-yl)-1-(cyclopropylmethyl)-1H-pyrrolo [2,3-b]pyridin-6-yl)-N-ethylmethanesulfonamide], the IC50 came to 0.173 µM. In the case of `CCN(c1ccc2cc(-c3nc4cc(C(=O)N5C[C@H](N)CC[C@@H]5C)cc(OC)c4n3C)n(CC3CC3)c2n1)S(C)(=O)=O` [Example 30, N-(2-(5-((2S,5R)-5-amino-2-methylpiperidine-1-carbonyl)-7-methoxy-1-methyl-1H-benzo[d]imidazol-2-yl)-1-(cyclopropylmethyl)-1H-pyrrolo [2,3-b]pyridin-6-yl)-N-ethylmethanesulfonamide], the 50% inhibitory concentration (IC50) is 0.0882 µM. In the case of `COc1cc(C(=O)N2CCC[C@@H](N)[C@H]2C)cc2nc(-c3cc4ccc(N(C5CC5)S(C)(=O)=O)nc4n3CC3CC3)n(C)c12` [Example 31, N-(2-(5-((2R,3R)-3-amino-2-methylpiperidine-1-carbonyl)-7-methoxy-1-methyl-1H-benzo[d]imidazol-2-yl)-1-(cyclopropylmethyl)-1H-pyrrolo [2,3-b]pyridin-6-yl)-N-cyclopropylmethanesulfonamide], the concentration for half-maximal inhibition (IC50) turned out to be 0.11 µM.

For `COc1cc(C(=O)N2CCC[C@@H](N)[C@H]2C)cc2nc(-c3cc4ccc(N(C(F)F)S(C)(=O)=O)nc4n3CC3CC3)n(C)c12` [Example 33, N-(2-(5-((2R,3R)-3-amino-2-methylpiperidine-1-carbonyl)-7-methoxy-1-methyl-1H-benzo[d]imidazol-2-yl)-1-(cyclopropylmethyl)-1H-pyrrolo [2,3-b]pyridin-6-yl)-N-(difluoromethyl) methanesulfonamide], the IC50 amounted to 0.0773 µM. The same measure for `COc1cc(C(=O)N2CC[C@@H](C)[C@@H](N)C2)cc2nc(-c3cc4ccc(N(C5CC5)S(C)(=O)=O)nc4n3CC3CC3)n(C)c12` [Example 34, N-(2-(5-((3R,4R)-3-amino-4-methylpiperidine-1-carbonyl)-7-methoxy-1-methyl-1H-benzo[d]imidazol-2-yl)-1-(cyclopropylmethyl)-1H-pyrrolo [2,3-b]pyridin-6-yl)-N-cyclopropylmethanesulfonamide]: 0.3 µM. The same measure for `CCN(c1ccc2cc(-c3nc4cc(C(=O)N5CCC[C@@H](N)[C@H]5C)cc(OC)c4n3C3CC3)n(CC3CC3)c2n1)S(C)(=O)=O` [Example 35, N-(2-(5-((2R,3R)-3-amino-2-methylpiperidine-1-carbonyl)-1-cyclopropyl-7-methoxy-1H-benzo[d]imidazol-2-yl)-1-(cyclopropylmethyl)-1H-pyrrolo [2,3-b]pyridin-6-yl)-N-ethylmethanesulfonamide]: 0.141 µM. With `CCN(c1ccc2cc(-c3nc4cc(C(=O)N5CCC[C@@H](N)[C@H]5C)cc(OC)c4n3CC3COC3)n(CC3CC3)c2n1)S(C)(=O)=O` [Example 37, N-(2-(5-((2R,3R)-3-amino-2-methylpiperidine-1-carbonyl)-7-methoxy-1-(oxetan-3-ylmethyl)-1H-benzo[d]imidazol-2-yl)-1-(cyclopropylmethyl)-1H-pyrrolo [2,3-b]pyridin-6-yl)-N-ethylmethanesulfonamide], the IC50 came to 0.235 µM. For the molecule `COc1cc(C(=O)N2C[C@H](N)CC[C@@H]2C)cc2nc(-c3cc4ccc(N(C(F)F)S(C)(=O)=O)nc4n3CC3CC3)n(C)c12` [Example 38, N-(2-(5-((2S,5R)-5-amino-2-methylpiperidine-1-carbonyl)-7-methoxy-1-methyl-1H-benzo[d]imidazol-2-yl)-1-(cyclopropylmethyl)-1H-pyrrolo [2,3-b]pyridin-6-yl)-N-(difluoromethyl) methanesulfonamide], the concentration for half-maximal inhibition (IC50) stood at 0.0934 µM. The same measure for `CCN(c1ccc2cc(-c3nc4cc(C(=O)N5CCC[C@@H](N)[C@H]5C)cc(OC)c4n3CC3(C)CC3)n(CC3CC3)c2n1)S(C)(=O)=O` [Example 40, N-(2-(5-((2R,3R)-3-amino-2-methylpiperidine-1-carbonyl)-7-methoxy-1-((1-methylcyclopropyl)methyl)-1H-benzo[d]imidazol-2-yl)-1-(cyclopropylmethyl)-1H-pyrrolo [2,3-b]pyridin-6-yl)-N-ethylmethanesulfonamide]: 0.329 µM; for `CCN(c1ccc2cc(-c3nc4cc(C(=O)N5CCC[C@@H](N)[C@H]5C)cc(OC)c4n3CCOC)n(CC3CC3)c2n1)S(C)(=O)=O` [Example 41, N-(2-(5-((2R,3R)-3-amino-2-methylpiperidine-1-carbonyl)-7-methoxy-1-(2-methoxyethyl)-1H-benzo[d]imidazol-2-yl)-1-(cyclopropylmethyl)-1H-pyrrolo [2,3-b]pyridin-6-yl)-N-ethylmethanesulfonamide]: 0.229 µM.

As for `COc1cc(C(=O)N2C[C@H](N)CC[C@@H]2C)cc2nc(-c3cc4ccc(N(C(F)F)S(C)(=O)=O)nc4n3CC3CC3)n(C3CC3)c12` [Example 42, N-(2-(5-((2S,5R)-5-amino-2-methylpiperidine-1-carbonyl)-1-cyclopropyl-7-methoxy-1H-benzo[d]imidazol-2-yl)-1-(cyclopropylmethyl)-1H-pyrrolo [2,3-b]pyridin-6-yl)-N-(difluoromethyl) methanesulfonamide], the IC50 came to 0.221 µM. Consider `[2H][C@@]1(N)CCCN(C(=O)c2cc(OC)c3c(c2)nc(-c2cc4ccc(N(C(F)F)S(C)(=O)=O)nc4n2CC2CC2)n3C)C1` [Example 45, (R)-N-(2-(5-(3-aminopiperidine-1-carbonyl-3-d)-7-methoxy-1-methyl-1H-benzo[d]imidazol-2-yl)-1-(cyclopropylmethyl)-1H-pyrrolo[2,3-b]pyridin-6-yl)-N-(difluoromethyl) methanesulfonamide], for which the IC50 amounted to 0.11 µM.
